Source: US10745370B2, “Farnesyl transferase inhibitors and uses thereof” (MACKAY MEMORIAL HOSPITAL, priority 2016, dated 2020)

Columns and labels:
[1] = tested on: M1 macrophages; experiment: Cell marker expression on M1 macrophages, flow cytometry; type: cell-based, human; conditions: for CD14: M1 population after treatment: Table 5; for CD80: change in M1 population: Table 6; for CD206: change in M1: Table 7; for CD206 expression on M1 macrophages: control 14.27%; for CD80 expression on M1 macrophages: control 71.34%; for CD14 expression on M1 macrophages: control 99.83%
Procedure: M1 differentiation of freshly isolated CD14^+ cells was induced by the addition of lipopolysaccharide (LPS), while M2 differentiation of freshly isolated CD14^+ cells was induced by the addition of IL-4. Then, the present compounds (e.g., Mib-5, 6, 7, 8, 9, or 10) were added at the indicated dosages. 6 days later, the population of the differentiated macrophages were then determined by cell viability analysis.
(§1) The expression of various types of cell markers, such as CD14, CD206, and CD80 expressed on the surface of macrophages, and CD1a, CD14, CD83, and HLA-DR expressed on the dendritic cells, were respectively detected by fluorescein isothiocyanate (FITC) and phycoerythrin (PE)-conjugated monoclonal antibodies in FACS caliber flowcytometer. Monoclonal antibodies used in this examples included anti-CD14 (IgG-FITC), anti-CD206 (IgG-FITC), anti-CD80-PE, anti-CD1a-PE, anti-CD83-PE and anti-human leukocyte antigen (HLA)-DR-PE. Results were analyzed by CellQuest software.

[2] = tested on: macrophages; experiment: Phagocytosis assay with fluorescent latex beads; type: cell-based, human; conditions: M1 and/or M2 populations, FIG. 6
Procedure: As to the effects of the present compound on macrophages, the CD14^+ cells were cultivated and treated as indicated above except the addition of cytokine cocktail on day 6. The macrophages were collected on day 6 and subjected to further assays, including viability assay, trypan blue exclusion test, morphology observation, cell marker staining, and phagocytotic activity analysis.
The phagocytic activity of macrophages was measured by using flow cytometric analysis. The green fluorescent latex beads (carboxylate-modified beads with diameter 2 μm) were suspended in PBS solution and added into macrophage culture for 2 hours with vortexa at 37° C. The macrophages were subjected to flow cytometry for measurement of fluorescent intensity

[3] = tested on: dendritic cells; experiment: Morphology of dendritic cells by Liu's staining; type: cell-based, human; conditions: 10 μM, seven days, FIG. 8
Procedure: (§2) Mononuclear cells (MNCs) were separated from the peripheral blood of healthy donors obtained with written consent by use of Ficoll-Hypaque density centrifugation, followed by positive selection with magnetic anti-CD14 microbeads.
(§3) The isolated CD14^+ cells were cultivated in Minimum Essential Medium (MEM medium) supplemented with 10% fetal bovine serum (FBS), 100 ng/ml granulocyte-macrophage colony-stimulating factor (GM-CSF, Gentaur), and 50 ng/ml interleukin-4 (IL-4, R&D), and kept in an environment of 37° C. with 5% CO2/95% air.
(§4) To evaluate the effects of the present compound on dendritic cells, the CD14^+ cells were respectively treated with 10 μM of test compound (i.e., Mib-5, Mib-6, Mib-7, Mib-8, Mib-9, and Mib-10) on day 1. Then, on day 3, the cultured medium in each well was replenished by adding half the volume of the cultured medium containing the same treatment as indicated above. Then, on day 6, a cytokine cocktail containing IL-1, IL-6, and tumor necrosis factor-α (TNF-α) was added to induce maturation. On day 7, the differentiated dendritic cells were collected and subjected to further assays, including viability assay, morphology observation, and cell marker staining.
Cells were transferred to a glass coverslide and covered with solution A (0.5 g of methylene blue and 1.7 g of Eosin yellow dissolved in 1,000 ml of ethanol). After 45 seconds, solution B (1.3 g of azure, 1.4 g of methylene blue, 23.38 g of Na2HPO4, 6.5 g of KH2PO4, dissolved in 1,000 ml of distilled water) was added in the proportion of 2 parts of B to 1 part of A. Mixed the solutions well by blowing the surface. The slide was left standing for 90 seconds and then washed off the staining solution rapidly by running water. The morphology of stained cells was then examined under microscope.
(§5) In this example, the effects of the present compounds on dendritic cells were investigated. Briefly, the dendritic cells were respectively treated with 10 μM of Mib-5, Mib-6, Mib-7, Mib-8, or Mib-10. Seven days later, the cells were harvested and subjected to analysis of morphology observation, cell viability, and/or cell marker expression.

[4] = tested on: dendritic cells; experiment: Cell marker expression on dendritic cells, flow cytometry; type: cell-based, human; conditions: 10 μM; for expression of CD1a, differentiation marker of dendritic cells: FIG. 9; for expression of CD83, maturation marker of dendritic cells: FIG. 10
Procedure: as §2, §3, §4, §1, §5

[5] = tested on: skin allograft, C57BL/6 donors, BALB/c recipients; experiment: Skin allo-transplantation rejection model; type: in vivo, mice; conditions: 10 mg/kg/day intraperitoneally, 20 days, FIG. 13
Procedure: Six- to eight-week-old male C57BL/6(H-2^b) and BALB/c(H-2^d) mice were purchased from the Animal Resource Center of the National Science Council of Taiwan (Taipei, Taiwan). All animal experiments were approved by the animal ethics committee of Mackay Memorial Hospital. Surgery for skin transplantation was performed with standardized procedures. In brief, a 2×1 cm full-thickness skin graft was harvested from the C57BL/6 donor mouse. A graft bed on the BALB/c recipient was prepared. The skin graft was sutured to the recipient's graft bed. Rejection was defined as necrosis of more than 80% of the epidermal surface of the graft. The tested agents included vehicle (as control), Mib-5 (10 mg/kg/day), Mib-7 (10 mg/kg/day) and rapamycin (1.5 mg/kg/day as positive control). Treatments were administered intraperitoneally daily for consecutive 20 days until rejection was observed.
The skin allo-transplantation model, by using C57BL/6(H-2^b) mice as donors and BALB/c(H-2^d) mice as recipients, was used to examine the effect of Mib-5 and Mib-7 on allograft survival, in which rapamycin served as a positive control.

Row | Structure (SMILES) | CD14: M1 population after treatment [1] | CD80: change in M1 population [1] | CD206: change in M1 [1] | CD206 expression on M1 macrophages [1] [%] | CD80 expression on M1 macrophages [1] [%] | CD14 expression on M1 macrophages [1] [%] | phagocytic activity compared with control [2] | dendritic cell morphology compared with control group [3] | expression of CD1a, differentiation marker of dendritic cells [4] | expression of CD83, maturation marker of dendritic cells [4] | mean survival of skin allograft in recipient mice [5]
1 | COC1=CC(=O)[C@@]2(c3cc(=O)c4ccc(OC)cc4o3)[C@H](C[C@]3(C)[C@@H](C(=O)O)CC=C4[C@H]3CCCC4(C)C)C(C)=CC[C@H]2C1=O [Mib-5] | remained relatively unchanged | reduction | significant decrease | 5.41 | 11.94 | 97.03 | reduced | cell death reflected in morphology changes, and less dendritic process | inhibited | inhibited | significantly prolonged
2 | COC1=CC(=O)[C@@]2(c3cc(=O)c4c(O)cc(O)cc4o3)[C@H](C[C@]3(C)[C@@H](C(=O)O)CC=C4[C@H]3CCCC4(C)C)C(C)=CC[C@H]2C1=O [Mib-7] | remained relatively unchanged | reduction | significant decrease | 4.9 | 23.04 | 98.66 | reduced | cell death reflected in morphology changes, and less dendritic process | inhibited | inhibited | significantly prolonged
